The values that follow come from patent US9708312B2, “Dihydropyrimidinoisoquinolinones and pharmaceutical compositions thereof for the treatment of inflammatory disorders (GPR84 antagonists)” (GALAPAGOS NV, priority 2012, dated 2017).

The assay addresses T1, GPR84 (Homo sapiens, UniProt Q9NQS5).
T1 construct: expressed in transfected cells
In words: GPR84 [35S]GTPγS binding assay, HEPES buffer. Type of assay: biochemical. Particulars: 3,3′ di indolylmethane at EC80, membranes from stable cell line over expressing GPR84. The procedure:
1.1. Cell Based Assay: GTp-γ S Binding Assay.
The following assay can be used for determination of GPR84 activation.
The assay is performed in a 96 well plate where the following reagents are added. […] In a last step, 30 μL of a mixture consisting of membranes-GTPγS-SpA beads is added [mixture consists of 20 μg/well membranes derived from stable cell line over expressing GPR84 (membranes are pre-incubated with 0.1 μM GDP for 15 min at 4° C.), 0.1 nM [^35S]GTPγS (Perkin Elmer, NEG030) and 0.5 mg/well PVT-WGA SpA beads (Perkin Elmer, RPNQ0001)]. All components are diluted in assay buffer containing 20 mM HEPES pH 7.4; 5 mM MgCl2; 250 mM NaCl; 0.05% BSA; 75 ug/mL saponin Reactions are incubated for 90 min at room temperature followed by centrifugation at 2000 rpm during 15 min. Plates are read on a Topcount reader (Perkin Elmer) immediately after centrifugation (readout time, 1 min/well).

T1 sequence (Q9NQS5 whole entry): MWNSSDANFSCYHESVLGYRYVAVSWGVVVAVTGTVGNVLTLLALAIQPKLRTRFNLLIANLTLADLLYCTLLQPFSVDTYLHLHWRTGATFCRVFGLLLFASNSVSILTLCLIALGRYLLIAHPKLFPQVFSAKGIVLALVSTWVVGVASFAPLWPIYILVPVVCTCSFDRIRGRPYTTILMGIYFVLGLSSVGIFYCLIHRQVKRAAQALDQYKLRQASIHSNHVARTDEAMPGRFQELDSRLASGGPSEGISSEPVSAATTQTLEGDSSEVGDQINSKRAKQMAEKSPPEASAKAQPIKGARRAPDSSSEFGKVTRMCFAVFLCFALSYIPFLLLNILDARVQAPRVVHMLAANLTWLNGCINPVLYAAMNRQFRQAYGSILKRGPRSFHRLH

`Cn1cc(-c2cccc(COc3ccc4c(c3)CCn3c-4cc(OCC4CCCO4)nc3=O)n2)cn1` (stereo not shown) [compound 55, 9-[6-(1-methyl-1H-pyrazol-4-yl)-pyridin-2-ylmethoxy]-2-(tetrahydro-furan-2-ylmethoxy)-6,7-dihydro-pyrimido[6,1-a]isoquinolin-4-one] displayed a concentration for half-maximal inhibition (IC50) of 100 to 500 nM.

Regarding `CC(C)(N)C#Cc1ccc2c(c1)CCn1c-2cc(OCC2COc3ncccc3O2)nc1=O` (stereo not shown) [compound 178, 9-(3-amino-3-methyl-but-1-ynyl)-2-(2,3-dihydro-[1,4]dioxino[2,3-b]pyridin-2-ylmethoxy)-6,7-dihydro-pyrimido[6,1-a]isoquinolin-4-one], the IC50 was in the range of 100 to 500 nM.

Take `CNCC#Cc1ccc2c(c1)CCn1c-2cc(OCC2COc3ncccc3O2)nc1=O` (stereo not shown) [compound 171, 2-(2,3-dihydro-[1,4]dioxino[2,3-b]pyridin-2-ylmethoxy)-9-(3-methylamino-prop-1-ynyl)-6,7-dihydro-pyrimido[6,1-a]isoquinolin-4-one]: the half-maximal inhibitory concentration (IC50) lay within 500 to 1000 nM.

`CN1CCN(CCCOc2ccc3c(c2)CCn2c-3cc(OCC3COc4ccccc4O3)nc2=O)CC1` (stereo not shown) [compound 84, 2-(2,3-dihydro-benzo[1,4]dioxin-2-ylmethoxy)-9-[3-(4-methyl-piperazin-1-yl)-propoxy]-6,7-dihydro-pyrimido[6,1-a]isoquinolin-4-one] displayed a 50% inhibitory concentration (IC50) of 100 to 500 nM.

In turn, `O=c1nc(OCC2COc3ncccc3O2)cc2n1CCc1cc(CN3CCOCC3)ccc1-2` (stereo not shown) [compound 150, 2-(2,3-dihydro-[1,4]dioxino[2,3-b]pyridin-2-ylmethoxy)-9-morpholin-4-ylmethyl-6,7-dihydro-pyrimido[6,1-a]isoquinolin-4-one] returned an IC50 of 0.01 to 100 nM.

In the case of `Cc1ccccc1COc1ccc2c(c1)CCn1c-2cc(OCC2CCCO2)nc1=O` (stereo not shown) [compound 39, 9-(2-methyl-benzyloxy)-2-(tetrahydro-furan-2-ylmethoxy)-6,7-dihydro-pyrimido[6,1-a]isoquinolin-4-one], the half-inhibitory concentration (IC50) lay within 0.01 to 100 nM.

Consider `COc1ncc(-c2ccc3c(c2)CCn2c-3cc(OCC3COc4ncccc4O3)nc2=O)cn1` (stereo not shown) [compound 166, 2-(2,3-dihydro-[1,4]dioxino[2,3-b]pyridin-2-ylmethoxy)-9-(2-methoxy-pyrimidin-5-yl)-6,7-dihydro-pyrimido[6,1-a]isoquinolin-4-one], for which the IC50 was in the range of 0.01 to 100 nM.

The compound `O=C1CN(CC#Cc2ccc3c(c2)CCn2c-3cc(OCC3COc4ncccc4O3)nc2=O)C(=O)N1` (stereo not shown) [compound 176, 1-{3-[2-(2,3-Dihydro-[1,4]dioxino[2,3-b]pyridin-2-ylmethoxy)-4-oxo-6,7-dihydro-4H-pyrimido[6,1-a]isoquinolin-9-yl]-prop-2-ynyl}-imidazolidine-2,4-dione] registered a concentration for half-maximal inhibition (IC50) of 100 to 500 nM.

The compound `O=c1nc(OCC2COc3ncccc3O2)cc2n1CCc1ccccc1-2` (stereo not shown) [compound 146, 2-(2,3-dihydro-[1,4]dioxino[2,3-b]pyridin-2-ylmethoxy)-6,7-dihydro-pyrimido[6,1-a]isoquinolin-4-one] yielded an IC50 of 0.01 to 100 nM.

For `O=c1nc(OCC2CCCO2)cc2n1CCc1cc(-c3cccnc3)ccc1-2` (stereo not shown) [compound 94, 9-pyridin-3-yl-2-(tetrahydro-furan-2-ylmethoxy)-6,7-dihydro-pyrimido[6,1-a]isoquinolin-4-one], the half-maximal inhibitory concentration (IC50) lay in the range of 500 to 1000 nM.

The compound `COc1ccc(OCCOc2ccc3c(c2)CCn2c-3cc(OCC3CCCO3)nc2=O)cc1` (stereo not shown) [compound 42, 9-[2-(4-methoxy-phenoxy)-ethoxy]-2-(tetrahydro-furan-2-ylmethoxy)-6,7-dihydro-pyrimido[6,1-a]isoquinolin-4-one] yielded a half-inhibitory concentration (IC50) of 0.01 to 100 nM.

For `O=c1nc(OCC2COc3ncccc3O2)cc2n1CCc1cc(C3=CCOCC3)ccc1-2` (stereo not shown) [compound 161, 2-(2,3-dihydro-[1,4]dioxino[2,3-b]pyridin-2-ylmethoxy)-9-(3,6-dihydro-2H-pyran-4-yl)-6,7-dihydro-pyrimido[6,1-a]isoquinolin-4-one], the IC50 is 0.01 to 100 nM.

Regarding `O=c1nc(OCC2COc3ncccc3O2)cc2n1CCc1cc(OCCN3CCOCC3)ccc1-2` (stereo not shown) [compound 90, 2-(2,3-dihydro-[1,4]dioxino[2,3-b]pyridin-2-ylmethoxy)-9-(2-morpholin-4-yl-ethoxy)-6,7-dihydro-pyrimido[6,1-a]isoquinolin-4-one], the 50% inhibitory concentration (IC50) lay within 100 to 500 nM.

As to `O=c1nc(OCC2COc3ncccc3O2)cc2n1CCc1cc(CN3CCCC3)ccc1-2` (stereo not shown) [compound 197, 2-(2,3-dihydro-[1,4]dioxino[2,3-b]pyridin-2-ylmethoxy)-9-pyrrolidin-1-ylmethyl-6,7-dihydro-pyrimido[6,1-a]isoquinolin-4-one], the concentration for half-maximal inhibition (IC50) lay in the range of 100 to 500 nM.

Compound `COc1cccc(-c2ccc3c(c2)CCn2c-3cc(OCC3COc4ncccc4O3)nc2=O)c1OC` (stereo not shown) [compound 167, 2-(2,3-dihydro-[1,4]dioxino[2,3-b]pyridin-2-ylmethoxy)-9-(2,3-dimethoxy-phenyl)-6,7-dihydro-pyrimido[6,1-a]isoquinolin-4-one] yielded a half-maximal inhibitory concentration (IC50) of 0.01 to 100 nM.

Take `COc1ccc2c(c1)CCn1c-2cc(OCC2Cc3ccccc3O2)nc1=O` (stereo not shown) [compound 5, 2-(2,3-dihydro-benzofuran-2-ylmethoxy)-9-methoxy-6,7-dihydro-pyrimido[6,1-a]isoquinolin-4-one]: the IC50 fell in the range of 500 to 1000 nM.

`O=c1nc(OCC2CCCO2)cc2n1CCc1cc(OCc3ccc(Cl)cc3)ccc1-2` (stereo not shown) [compound 21, 9-(4-chloro-benzyloxy)-2-(tetrahydro-furan-2-ylmethoxy)-6,7-dihydro-pyrimido[6,1-a]isoquinolin-4-one] returned an IC50 of 0.01 to 100 nM.

Take `COC(=O)c1cccc(COc2ccc3c(c2)CCn2c-3cc(OCC3CCCO3)nc2=O)c1` (stereo not shown) [compound 27, 3-[4-oxo-2-(tetrahydro-furan-2-ylmethoxy)-6,7-dihydro-4H-pyrimido[6,1-a]isoquinolin-9-yloxymethyl]-benzoic acid methyl ester]: the IC50 lay within 0.01 to 100 nM.

As for `CCc1nc(COc2ccc3c(c2)CCn2c-3cc(OCC3COc4ncccc4O3)nc2=O)no1` (stereo not shown) [compound 155, 2-(2,3-dihydro-[1,4]dioxino[2,3-b]pyridin-2-ylmethoxy)-9-(5-ethyl-[1,2,4]oxadiazol-3-ylmethoxy)-6,7-dihydro-pyrimido[6,1-a]isoquinolin-4-one], the IC50 fell in the range of 0.01 to 100 nM.

Take `O=c1nc(OCC2CCCO2)cc2n1CCc1cc(OCc3ccccc3[N+](=O)[O-])ccc1-2` (stereo not shown) [compound 25, 9-(2-nitro-benzyloxy)-2-(tetrahydro-furan-2-ylmethoxy)-6,7-dihydro-pyrimido[6,1-a]isoquinolin-4-one]: the half-inhibitory concentration (IC50) is 0.01 to 100 nM.

In turn, `CN(C)CC#Cc1ccc2c(c1)CCn1c-2cc(OCC2COc3ncccc3O2)nc1=O` (stereo not shown) [compound 172, 2-(2,3-dihydro-[1,4]dioxino[2,3-b]pyridin-2-ylmethoxy)-9-(3-dimethylamino-prop-1-ynyl)-6,7-dihydro-pyrimido[6,1-a]isoquinolin-4-one] gave an IC50 of 0.01 to 100 nM.

Regarding `N#Cc1ccc(-c2ccc3c(c2)CCn2c-3cc(OCC3COc4ncccc4O3)nc2=O)cn1` (stereo not shown) [compound 162, 5-[2-(2,3-dihydro-[1,4]dioxino[2,3-b]pyridin-2-ylmethoxy)-4-oxo-6,7-dihydro-pyrimido[6,1-a]isoquinolin-9-yl]-pyridine-2-carbonitrile], the concentration for half-maximal inhibition (IC50) fell in the range of 0.01 to 100 nM.
